Like-named read-outs stand apart in the source and are kept apart here.
Assays:
KKAY mice = experiment: Hypoglycemic and hypolipidemic actions in mice (Test Example 1); format: in vivo; conditions: Mus musculus, po, 96 h, 0.005% in powdery diet, four days
Text: Test compounds were mixed in a powdery diet (CE-2, Japan Clea) at the concentration of 0.01% (compounds of Examples 7, 26, 29, 32) or 0.005% (compounds of Examples 1, 11, 15, 18, 24, 36, 37, 41, 48, 50, 51, 52, 58, 62, 79, 83, 88, 90, 91, 92, 93, 97, 107, 110, 115, 119, 122, 125, 129 and 130), and freely given to KKAY mice (11 to 12 weeks old, 5 mice in a group), a model of type 2 diabetes mellitus, for four days. During this period, water was given freely. Blood was sampled from orbital venous plexus, and glucose and triglyceride levels in plasma separated from blood were determined enzymatically using L type Wako Glu2 (Wako Pure Chemical Industries, Ltd.) or L type Wako TG.H (Wako Pure Chemical Industries, Ltd.), respectively.
In the Table, “hypoglycemic action (%)” means a percent reduction (%) of the glucose level in the test compound administration group when that of the test compound non-administration group is taken as 100%. In addition, the “hypolipidemic action (%)” means a percent reduction (%) of the triglyceride level in the test compound administration group when that of the test compound non-administration group is taken as 100%.

PPARγ-RXRα heterodimer = target: T1, PPARγ-RXRα heterodimer (Homo sapiens, UniProt P37231); experiment: PPARγ-RXRα heterodimer ligand activity, luciferase reporter in PPARγ:RXRα:4ERPP/CHO-K1 cells (Test Example 3); format: cell-based; conditions: concentration for 50% of the maximum fold induction of luciferase activity; 48 hours, CHO-K1 cells
T1 construct: expressed in transfected cells; host or cells: CHO-K1
T1 sequence (P37231 1-477 isoform P37231-2): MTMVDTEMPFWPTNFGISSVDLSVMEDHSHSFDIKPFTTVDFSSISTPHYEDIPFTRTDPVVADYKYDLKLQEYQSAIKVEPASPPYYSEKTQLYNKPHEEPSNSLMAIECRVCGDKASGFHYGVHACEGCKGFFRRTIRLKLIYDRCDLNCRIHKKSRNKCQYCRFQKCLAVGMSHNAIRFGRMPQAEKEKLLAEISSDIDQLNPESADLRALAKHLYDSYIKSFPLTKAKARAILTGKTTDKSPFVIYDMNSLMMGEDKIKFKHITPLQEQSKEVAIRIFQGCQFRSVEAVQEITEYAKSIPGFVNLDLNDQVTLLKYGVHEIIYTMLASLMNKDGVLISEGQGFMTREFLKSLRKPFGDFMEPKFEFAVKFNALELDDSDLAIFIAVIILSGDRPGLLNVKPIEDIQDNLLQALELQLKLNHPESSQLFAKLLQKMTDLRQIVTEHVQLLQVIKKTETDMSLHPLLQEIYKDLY
T1 sequence (P19793 1-462 partner): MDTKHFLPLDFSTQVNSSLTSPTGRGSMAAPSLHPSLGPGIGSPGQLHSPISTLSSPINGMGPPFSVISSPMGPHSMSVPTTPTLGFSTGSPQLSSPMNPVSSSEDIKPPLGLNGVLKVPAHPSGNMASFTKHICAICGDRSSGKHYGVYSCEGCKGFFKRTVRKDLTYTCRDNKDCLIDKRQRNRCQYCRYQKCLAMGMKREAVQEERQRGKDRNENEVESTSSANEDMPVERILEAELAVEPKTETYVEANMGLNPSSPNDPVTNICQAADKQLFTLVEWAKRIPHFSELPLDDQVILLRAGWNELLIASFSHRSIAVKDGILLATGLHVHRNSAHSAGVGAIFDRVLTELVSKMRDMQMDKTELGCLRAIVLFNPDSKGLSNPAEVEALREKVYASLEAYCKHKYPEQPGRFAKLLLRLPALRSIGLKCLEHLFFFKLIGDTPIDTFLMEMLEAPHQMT
Experimental: A PPARγ:RXRα:4ERPP/CHO-K1 cells obtained in Reference Example 5 described later were cultured in HAM F12 medium (produced by NISSUI SEIYAKU) containing 10% Fetal bovine serum (produced by Life Technologies, Inc., USA) and then inoculated to a 96-well white plate (produced by Corning Costar Corporation, USA) at the density of 2×10^4 cells/well, and cultured in a CO2 gas incubator at 37° C. overnight.
After washing the 96 well white plate with PBS (Phosphate-buffered saline), 90 μl of HAM F12 medium containing 0.1% fatty acid-free bovine serum albumin (BSA) and 10 μl of test compound were added, which was cultured in a CO2 gas incubator at 37° C. for 48 hours. After removing the medium, 40 μl of PIKKAGENE 7.5 (produced by Wako Pure Chemical Industries, Ltd.) was added. After stirring, the luciferase activity was determined using Lumistar (produced by BMG Labtechnologies GmbH, Germany).
A fold induction was calculated based on the luciferase activity of each test compound by taking the luciferase activity in the test compound non administration group as 1. The values of the test compound, concentration and the fold induction were analyzed using PRISM 2.01 (produced by GraphPad Software Inc. USA) to calculate the EC50 values, the effective concentration of a test compound for 50% of the maximum fold induction.
After a CHO-K1 cell cultured in a 750 ml tissue culture flask (produced by Corning-Costar Corporation, USA) containing HAM F12 medium (produced by NISSUI SEIYAKU) supplemented with 10% Fetal Bovine Serum (produced by Life Technologies, Inc., USA) was scraped by treating with 0.5 g/L trypsin-0.2 g/L EDTA (ethylenediaminetetraacetic acid) (produced by Life Technologies, Inc., USA), the cell was washed with PBS (phosphate buffered saline) (produced by Life Technologies, Inc., USA), centrifuged (1000 rpm, 5 minutes), and then suspended in PBS. Subsequently, a DNA was introduced into the cell under the condition shown below using GENE PULSER (produced by Bio-Rad Laboratories, USA).
Namely, to a cuvette having a 0.4 cm gap, added were 8×10^6 cells and 10 μg of plasmid pVgRXR2-hPPARγ obtained in Reference Example 3 and 10 μg of reporter plasmid pGL3-4ERPP-TK neo obtained in Reference Example 4, which was subjected to electroporation at the voltage of 0.25 kV under the capacitance of 960 μF. Subsequently, the cell was transferred into a HAM F12 medium containing 10% Fetal Bovine. Serum and cultured for 24 hours. Then the cell was scraped again and centrifuged, and then suspended in HAM F12 medium containing 10% Fetal Bovine Serum supplemented with 500 μg/ml of GENETICIN (produced by Life Technologies, Inc., USA) and 250 μg/ml of ZEOCIN (produced by Invitrogen, USA). The suspension was diluted to the density of 10^4 cells/ml, and inoculated to a 96-well plate (produced by Corning Costar Corporation, USA), which was cultured in a CO2 gas incubator at 37° C., whereby obtaining a GENETICIN- and ZEOCIN-resistant transformant.
Subsequently, after the transformant cell line thus obtained was cultured in a 24-well plate (produced by Corning Costar Corporation, USA), selected was a cell line, PPARγ:RXRα:4ERPP/CHO-K1 cell, in which the luciferase was expressed and induced by addition of 10 μM pioglitazone hydrochloride.

[1] = percent reduction of plasma glucose level vs non-administration group, read-out: hypoglycemic action (%)
[2] = percent reduction of plasma triglyceride level vs non-administration group, read-out: hypolipidemic action (%)

EC50 (PPARγ-RXRα heterodimer) [nM] | melting point [°C] | SMILES | inhibition in vivo at 0.005 % (KKAY mice; [1]) [%] | inhibition in vivo at 0.005 % (KKAY mice; [2]) [%]
110 | 116 to 117 | CCCc1ccc(OCc2ccc(OCc3nc(-c4ccccc4)oc3C)cc2)c(CC(=O)O)c1 [Example 83, 2-[2-[4-[(5-methyl-2-phenyl-4-oxazolyl)methoxy]benzyloxy]-5-propylphenyl]acetic acid] | 48 | 43
17 | 173 to 174 | Cc1sc(-c2ccccc2)nc1COc1ccc(COc2ccccc2CC(=O)O)cn1 [Example 122, 2-[2-[[6-[(5-methyl-2-phenyl-4-thiazolyl)methoxy]-3-pyridyl]methoxy]phenyl]acetic acid] | 52 | 67
220 | 159 to 160 | Cc1oc(-c2ccccc2)nc1CCOc1ccc(COc2ccccc2CC(=O)O)cn1 [Example 119, 2-[2-[[6-[2-(5-methyl-2-phenyl-4-oxazolyl)ethoxy]-3-pyridyl]methoxy]phenyl]acetic acid] | 40 | 33
130 | 126 to 127 | Cc1oc(-c2ccccc2)nc1COc1ccc(OCc2ncccc2CC(=O)O)cc1 [Example 125, 2-[2-[[4-[(5-methyl-2-phenyl-4-oxazolyl)methoxy]phenoxy]methyl]-3-pyridyl]acetic acid] | 41 | 40

Reference: patent US7238716B2, “Alkanoic acid derivatives process for their production and use thereof” (Takeda Pharmaceuticals Company Limited, priority 2000, dated 2007)
